# According to PubChem BioAssay AID504740 (National Center for Advancing Translational Sciences (NCATS), 2011):
# Test system: mouse plasma stability, LC-MS/MS, 48 h
# Experiment: Inhibitors of Bloom's syndrome helicase: Mouse Plasma Stability Profiling
# Conditions: at 2 µM; stronger effect = higher value
# Text: Survival of cells and the faithful propagation of the genome depend on elaborate mechanisms of detecting and repairing DNA damage. Treatment of advanced cancer relies on radiation therapy or chemotherapy, which kill cancer cells by causing extensive DNA damage. It is often found, that cancer cells develop resistance to therapy through enhanced activity of DNA repair functions; this has led to an increased interest in developing drugs that interfere with DNA repair, which could sensitize cancer cells to conventional therapy. Bloom syndrome helicase (BLM), is important in resolving abnormal DNA structures formed during replication or homologous recombination. Shutting down the expression of BLM leads to chromosomal instability and higher radiation sensitivity in cultured cells. After the completion of a qHTS campaign, secondary assays, and rounds of medicinal chemistry, a compound was identified to be further characterized through in vitro ADME assays. The stability of the lead compound in mouse plasma is tested because this parameter has a significant impact on many ADME-concerned properties of drugs, such as uptake, distribution, transport, and bioavailability. […]
# 2uM of compound is incubated in mouse plasma; the reference compound is procaine. Compounds are incubated at 37 deg C for the pre-determined time periods and the when aliquots are removed. Samples are analyzed with LC-MS/MS.
compound,measurement,value
O=C(Nc1ccc(F)c(C(F)(F)F)c1)Nc1nnc(-c2ccncc2)s1,percent remaining,100%
